The text below walks through data of publication PMC9858449 (Journal of Enzyme Inhibition and Medicinal Chemistry, 2023).

Like-named read-outs stand apart in the source and are kept apart here.

One series relates to HCT-116 cells. Put plainly: MTT cytotoxicity assay, HCT-116. The settings on record: Homo sapiens.
The next series relates to HeLa cells. Kind of series: MTT cytotoxicity assay, HeLa. The settings on record: Homo sapiens.
A further series concerns MCF-7 cells. Kind of series: MTT cytotoxicity assay, MCF-7. The settings on record: Homo sapiens.
For series [1], the system named is HepG-2 cells. Kind of series: MTT cytotoxicity assay, HepG-2. Format: cell-based. Conditions: Homo sapiens.
Series [2] has as its system HepG-2, HCT-116, MCF-7 and HeLa cells. Kind of series: MTT cytotoxicity assay, all four cancer cell lines together. Type of series: cell-based. Conditions: for Cytotoxic activity category, all four tested cancer cell lines: category in words by IC50, HepG-2, HCT-116, MCF-7, HeLa. A general note: Tetrazolium assays rely on reduction of a dye to a coloured formazan, in cell work by metabolically active cells.

The next series relates to Topo IIB. Conditions: read-out: Topo IIB IC50; cited from earlier work.
Series [3] concerns Topo II. Conditions: read-out: Topo II IC50; cited from earlier work.
The target of series [4] is Topoisomerase II (Topo II). The settings on record: read-out: Topo II IC50; cited from earlier work.
For another series, the target named is VEGFR-2 (Homo sapiens, UniProt P35968). Kind of series: In vitro VEGFR-2 enzyme inhibition assay. Format: biochemical.
Sequence of VEGFR-2 (P35968 20-1356): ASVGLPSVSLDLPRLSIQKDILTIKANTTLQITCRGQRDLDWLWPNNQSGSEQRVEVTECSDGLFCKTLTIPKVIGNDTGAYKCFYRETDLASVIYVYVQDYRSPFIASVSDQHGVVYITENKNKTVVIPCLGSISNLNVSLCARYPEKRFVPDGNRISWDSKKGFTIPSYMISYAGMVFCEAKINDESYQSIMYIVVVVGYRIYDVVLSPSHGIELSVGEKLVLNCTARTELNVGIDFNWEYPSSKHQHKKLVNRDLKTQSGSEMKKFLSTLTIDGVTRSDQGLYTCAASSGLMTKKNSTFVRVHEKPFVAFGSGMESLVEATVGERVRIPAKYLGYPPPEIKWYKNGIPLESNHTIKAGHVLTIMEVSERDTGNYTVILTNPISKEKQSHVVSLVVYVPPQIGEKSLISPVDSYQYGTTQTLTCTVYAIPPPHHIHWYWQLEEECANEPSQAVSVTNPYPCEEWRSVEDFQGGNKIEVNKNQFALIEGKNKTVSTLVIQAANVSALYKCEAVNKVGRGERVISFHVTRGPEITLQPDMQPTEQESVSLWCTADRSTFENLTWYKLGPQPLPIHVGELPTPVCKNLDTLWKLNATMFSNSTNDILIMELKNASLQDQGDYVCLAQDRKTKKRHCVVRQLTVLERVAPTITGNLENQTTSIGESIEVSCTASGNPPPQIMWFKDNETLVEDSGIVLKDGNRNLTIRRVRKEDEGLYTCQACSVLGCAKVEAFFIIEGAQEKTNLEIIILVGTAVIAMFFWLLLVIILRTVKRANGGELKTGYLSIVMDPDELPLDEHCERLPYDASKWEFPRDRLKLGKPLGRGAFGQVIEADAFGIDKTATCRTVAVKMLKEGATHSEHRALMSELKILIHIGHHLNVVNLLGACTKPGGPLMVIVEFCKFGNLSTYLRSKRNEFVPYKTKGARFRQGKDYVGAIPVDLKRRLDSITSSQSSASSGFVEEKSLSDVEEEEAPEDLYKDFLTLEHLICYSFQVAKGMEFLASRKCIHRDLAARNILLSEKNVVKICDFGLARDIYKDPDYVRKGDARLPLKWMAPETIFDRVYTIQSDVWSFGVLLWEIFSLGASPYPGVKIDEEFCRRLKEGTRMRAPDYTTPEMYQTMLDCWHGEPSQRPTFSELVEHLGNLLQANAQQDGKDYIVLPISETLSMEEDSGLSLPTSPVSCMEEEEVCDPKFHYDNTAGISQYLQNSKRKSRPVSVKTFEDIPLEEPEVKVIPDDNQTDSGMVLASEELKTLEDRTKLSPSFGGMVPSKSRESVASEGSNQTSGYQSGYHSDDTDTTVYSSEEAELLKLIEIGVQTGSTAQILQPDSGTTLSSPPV
Another series deals with EGFR (Homo sapiens, UniProt P00533). Kind of series: biochemical. Format: biochemical.
Sequence of EGFR (P00533 25-1210): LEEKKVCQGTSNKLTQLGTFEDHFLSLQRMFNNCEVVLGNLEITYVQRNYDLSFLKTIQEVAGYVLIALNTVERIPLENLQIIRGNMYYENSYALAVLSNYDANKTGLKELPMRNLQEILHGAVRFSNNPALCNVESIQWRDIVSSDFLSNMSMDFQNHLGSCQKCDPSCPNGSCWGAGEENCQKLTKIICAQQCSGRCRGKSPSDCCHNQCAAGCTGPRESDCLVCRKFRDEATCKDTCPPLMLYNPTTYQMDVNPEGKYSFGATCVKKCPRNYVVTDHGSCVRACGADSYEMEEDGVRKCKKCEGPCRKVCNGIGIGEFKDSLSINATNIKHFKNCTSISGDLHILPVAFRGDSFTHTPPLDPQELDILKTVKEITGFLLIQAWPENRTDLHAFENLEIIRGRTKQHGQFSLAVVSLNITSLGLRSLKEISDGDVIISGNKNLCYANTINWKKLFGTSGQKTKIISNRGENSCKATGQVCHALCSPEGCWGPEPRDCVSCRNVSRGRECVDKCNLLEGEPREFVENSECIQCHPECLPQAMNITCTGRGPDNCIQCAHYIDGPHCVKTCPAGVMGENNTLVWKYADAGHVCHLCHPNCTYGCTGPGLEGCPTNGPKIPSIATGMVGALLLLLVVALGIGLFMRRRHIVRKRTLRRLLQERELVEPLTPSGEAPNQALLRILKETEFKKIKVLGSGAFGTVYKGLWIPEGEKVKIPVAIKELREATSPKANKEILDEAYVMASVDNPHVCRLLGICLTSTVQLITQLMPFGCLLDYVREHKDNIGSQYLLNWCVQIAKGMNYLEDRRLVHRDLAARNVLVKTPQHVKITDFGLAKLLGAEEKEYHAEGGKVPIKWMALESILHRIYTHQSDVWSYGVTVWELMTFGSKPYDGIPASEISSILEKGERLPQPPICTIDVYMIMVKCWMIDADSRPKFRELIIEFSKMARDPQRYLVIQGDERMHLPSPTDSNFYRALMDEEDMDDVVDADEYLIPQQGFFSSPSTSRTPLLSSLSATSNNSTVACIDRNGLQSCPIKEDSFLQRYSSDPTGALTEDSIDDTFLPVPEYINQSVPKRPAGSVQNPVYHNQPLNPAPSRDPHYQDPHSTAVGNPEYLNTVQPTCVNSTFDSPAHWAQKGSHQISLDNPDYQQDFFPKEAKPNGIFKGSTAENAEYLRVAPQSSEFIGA
In series [5] the target is EGFR, VEGFR-2, and Topo II. Put plainly: In vitro enzyme inhibition assays, three enzymes together. Type of series: biochemical. Conditions: read-out: IC50 range on EGFR, VEGFR-2, and Topo II; range over the three enzymes.
The subject of another series is WI-38 cell line. Kind of series: In vitro cytotoxicity against normal WI-38 cell line. Conditions: Homo sapiens, WI-38, read-out: Normal cells IC50 WI-38. Type of series: cell-based.
For series [6], the system named is HepG-2 cells. Kind of series: Flow cytometry cell cycle analysis. Conditions: HepG-2, PI staining. Type of series: cell-based.
Series [7] deals with Topo II. Put plainly: In vitro Topo II enzyme inhibition assay. Format: biochemical. The settings on record: read-out: Topo II IC50; mean ± SD.
Series [8] deals with HepG-2 cells. Kind of series: Annexin V-FITC/PI apoptosis assay. Conditions: HepG-2, 24 h. Type of series: cell-based.
[9] abbreviates: HCT-116, 48 h, read-out: In vitro Cytotoxicity IC50 HCT-116.
Setting [10] is: 48 h, read-out: In vitro Cytotoxicity IC50 HeLa.
The mark [11] stands for this setting: MCF7, 48 h, read-out: In vitro Cytotoxicity IC50 MCF-7.
[12] abbreviates: HepG2, 48 h, read-out: In vitro Cytotoxicity IC50 HepG-2.
[13] abbreviates: HCT-116, read-out: Cytotoxic activity category, HCT-116.
Setting [14] is: read-out: Cytotoxic activity category, HeLa.
[15] abbreviates: MCF7, read-out: Cytotoxic activity category, MCF-7.
Where [16] appears, read: HepG2, read-out: Cytotoxic activity category, HepG-2.
[17] abbreviates: read-out: IC50 range over the four cancer cell lines.
The mark [18] stands for this setting: read-out: Cytotoxic activity category, all four tested cancer cell lines.

Regarding `Cc1c(C(=O)NNC(=O)Nc2ccccc2)nnn1Cc1nc2ccccc2[nH]1` [Compound 5h, 2-{1-[(1h-Benzo[d]imidazol-2-yl)methyl]-5-methyl-1H-1,2,3-triazole-4-carbonyl}-N-phenylhydrazinecarboxamide], the IC50 in the series with HCT-116 cells (setting [9]) was determined as 54.8 ± 3 µM; in the series on HeLa cells (setting [10]) it was 31.6 ± 2.3 µM; in the series on MCF-7 cells (setting [11]), 38 ± 2.6 µM; in the series with HepG-2 cells [1] (setting [12]), 42.1 ± 2.7 µM. For the same molecule, the “Cytotoxic activity category, all four tested cancer cell lines” value in series [2] is reported as “weak to moderate”.
For `Cc1c(C(=O)N/N=C/c2cccc(Br)c2)nnn1Cc1nc2ccccc2[nH]1` [Compound 6c, (E)-1-[(1H-Benzo[d]imidazol-2-yl)methyl]-N′-(3-bromobenzylidene)-5-methyl-1H-1,2,3-triazole-4-carbohydrazide], the IC50 turned out to be 63.6 ± 3.3 µM with HCT-116 cells (setting [9]), 48.8 ± 2.8 µM with HeLa cells (setting [10]), 44.8 ± 2.9 µM with MCF-7 cells (setting [11]) and 56.3 ± 3.2 µM in the series with HepG-2 cells [1] (setting [12]).
On to `Cc1c(C(=O)N/N=C/c2ccc(N(C)C)cc2)nnn1Cc1nc2ccccc2[nH]1` [Compound 6f, (E)-1-[(1H-Benzo[d]imidazol-2-yl)methyl]-N′-[4-(dimethylamino)benzylidene]-5-methyl-1H-1,2,3-triazole-4-carbohydrazide], for which the IC50 in the series with HCT-116 cells (setting [9]) was 11.7 ± 0.9 µM; in the series with HCT-116 cells (setting [13]), 11 to 20 µM; with HeLa cells (setting [10]) it was 22.8 ± 1.9 µM; with HeLa cells (setting [14]), 21 to 50 µM; in the series with MCF-7 cells (setting [11]) it was 14.7 ± 1.1 µM; in the series on MCF-7 cells (setting [15]), 11 to 20 µM. The values for the IC50 in the series with HepG-2 cells [1] (setting [12]) and with HepG-2 cells [1] (setting [16]) were 18.3 ± 1.5 µM and 11 to 20 µM, respectively.
Turning to `COc1cccc2c1C(=O)c1c(O)c3c(c(O)c1C2=O)C[C@@](O)(C(=O)CO)C[C@@H]3O[C@H]1C[C@H](N)[C@H](O)[C@H](C)O1` [Dox, Doxorubicin, reference compound], the IC50 in the series with Topo IIB was 0.83 µM; with HepG-2 cells [1] (setting [12]), 4.5 ± 0.2 µM; in series [2] (setting [17]) it was 4.17 to 5.57 µM.
As for `COc1cc([C@@H]2c3cc4c(cc3[C@@H](O[C@@H]3O[C@@H]5CO[C@@H](C)O[C@H]5[C@H](O)[C@H]3O)[C@H]3COC(=O)[C@H]23)OCO4)cc(OC)c1O` [Etoposide], the IC50 in the series with Topo II [3] is […].
With `CN1CCN(c2ccc3nc(-c4c(N)c5c(F)cccc5[nH]c4=O)[nH]c3c2)CC1` [Dovitinib], the IC50 in series [4] was 13 µM.
Turning to `Cc1c(C(=O)N/N=C/c2cccc([N+](=O)[O-])c2)nnn1Cc1nc2ccccc2[nH]1` [Compound 6d, (E)-1-[(1H-Benzo[d]imidazol-2-yl)methyl]-5-methyl-N′-(3-nitrobenzylidene)-1H-1,2,3-triazole-4-carbohydrazide], the IC50 with HCT-116 cells (setting [9]) is 36.5 ± 2.7 µM; with HeLa cells (setting [10]), 52.2 ± 3.1 µM; in the series on MCF-7 cells (setting [11]), 48.2 ± 3 µM; with HepG-2 cells [1] (setting [12]), 71.5 ± 3.6 µM.
2-phenylthiomethylbenzimidazole [VI]: in the series with Topo II [3], the IC50 was 17 µM.
For the molecule `COc1ccc(NC(=S)NNC(=O)c2nnn(Cc3nc4ccccc4[nH]3)c2C)cc1` [Compound 5g, 2-{1-[(1h-Benzo[d]imidazol-2-yl)methyl]-5-methyl-1H-1,2,3-triazole-4-carbonyl}-N-(4-methoxyphenyl)hydrazinecarbothioamide], the IC50 with HCT-116 cells (setting [9]) came to 18.7 ± 1.5 µM; with HeLa cells (setting [10]) it was 8.7 ± 0.6 µM; with MCF-7 cells (setting [11]), 9.39 ± 0.8 µM; in the series on HepG-2 cells [1] (setting [12]) it was 13.6 ± 1 µM.
With `Cc1c(C(=O)NNC(=O)Nc2cccc3ccccc23)nnn1Cc1nc2ccccc2[nH]1` [Compound 5c, 2-{1-[(1h-Benzo[d]imidazol-2-yl)methyl]-5-methyl-1H-1,2,3-triazole-4-carbonyl}-N-(naphthalen-1-yl)hydrazinecarboxamide], the IC50 in the series on HCT-116 cells (setting [9]) was found to be 59.2 ± 3.3 µM; in the series with HeLa cells (setting [10]), 27.6 ± 2 µM; with MCF-7 cells (setting [11]), 45.4 ± 2.9 µM; in the series with HepG-2 cells [1] (setting [12]), 67.4 ± 3.5 µM. Further, in series [2], the “Cytotoxic activity category, all four tested cancer cell lines” value is recorded as “weak to moderate”.
`Cc1ccc(NC(=S)NNC(=O)c2nnn(Cc3nc4ccccc4[nH]3)c2C)cc1` [Compound 5f, 2-{1-[(1h-Benzo[d]imidazol-2-yl)methyl]-5-methyl-1H-1,2,3-triazole-4-carbonyl}-N-(p-tolyl)hydrazinecarbothioamide]: the IC50 in the series on HCT-116 cells (setting [9]) amounted to 68.5 ± 3.7 µM; in the series on HeLa cells (setting [10]), 58.1 ± 3.1 µM; in the series on MCF-7 cells (setting [11]), 64.1 ± 3.3 µM; in the series on HepG-2 cells [1] (setting [12]), 72.7 ± 3.8 µM.
Turning to `COc1ccc(/C=N/NC(=O)c2nnn(Cc3nc4ccccc4[nH]3)c2C)cc1OC` [Compound 6e, (E)-1-[(1H-Benzo[d]imidazol-2-yl)methyl]-N′-(3,4-dimethoxybenzylidene)-5-methyl-1H-1,2,3-triazole-4-carbohydrazide], the IC50 with HCT-116 cells (setting [9]) was 19.7 ± 1.7 µM; in the series on HCT-116 cells (setting [13]), 11 to 20 µM; in the series with HeLa cells (setting [10]), 29.1 ± 2.3 µM; in the series on HeLa cells (setting [14]) it was 21 to 50 µM; in the series with MCF-7 cells (setting [11]), 23.7 ± 1.9 µM; with MCF-7 cells (setting [15]), 21 to 50 µM. The IC50 with HepG-2 cells [1] (setting [12]) is 33.6 ± 2.3 µM; with HepG-2 cells [1] (setting [16]) it was 21 to 50 µM.
In the case of `Cc1c(C(=O)NNC(=S)Nc2ccccc2)nnn1Cc1nc2ccccc2[nH]1` [Compound 5d, 2-{1-[(1h-Benzo[d]imidazol-2-yl)methyl]-5-methyl-1H-1,2,3-triazole-4-carbonyl}-N-phenylhydrazinecarbothioamide], the IC50 in the series on HCT-116 cells (setting [9]) was 41.4 ± 2.8 µM; in the series with HCT-116 cells (setting [13]), 21 to 50 µM; in the series with HeLa cells (setting [10]) it was 12.4 ± 0.9 µM; in the series with HeLa cells (setting [14]), 11 to 20 µM; in the series on MCF-7 cells (setting [11]) it was 30.8 ± 2.3 µM; in the series on MCF-7 cells (setting [15]), 21 to 50 µM. Also, the IC50 in the series with HepG-2 cells [1] (setting [12]) is 57.2 ± 3.2 µM; with HepG-2 cells [1] (setting [16]), 51 to 100 µM.
Turning to `COc1cc(/C=N/NC(=O)c2nnn(Cc3nc4ccccc4[nH]3)c2C)ccc1O` [Compound 6g, (E)-1-[(1H-Benzo[d]imidazol-2-yl)methyl]-N′-(4-hydroxy-3-methoxybenzylidene)-5-methyl-1H-1,2,3-triazole-4-carbohydrazide], the “Activity relative to Sorafenib against VEGFR-2” value at VEGFR-2 is listed as 21%. Besides, the IC50 in the series on HCT-116 cells (setting [9]) was 3.34 ± 0.4 µM; at EGFR, 0.131 ± 0.005 µM; with HeLa cells (setting [10]), 9.84 ± 0.7 µM; in the series on MCF-7 cells (setting [11]) it was 7.11 ± 0.5 µM; in [5] it was 0.131 to 8.37 µM; with WI-38 cell line it was 43.3 ± 2.6 µM. The IC50 with HepG-2 cells [1] (setting [12]) is 10.9 ± 0.8 µM; at Topo II [7] it was 8.37 ± 0.49 µM; in series [2] (setting [18]) it was 1 to 10 µM; in series [2] (setting [17]) it was 3.34 to 10.9 µM. The “Activity relative to Gefitinib against EGFR” value at EGFR is given as ~40%. Further, in the series on HepG-2 cells [6], the “Cell cycle distribution G0-G1” value came out at 38.91%. Also, the “Cell cycle distribution G2/M” value in the series on HepG-2 cells [6] is listed as 33.81%. Moreover, in the series with HepG-2 cells [6], the “Cell cycle distribution Pre-G1” value came out at 36.28%. The “Cell cycle distribution S” value with HepG-2 cells [6] was determined as 27.28%. Also, the “Apoptosis Early (Q4)” value with HepG-2 cells [8] is on record as 11.02%. Also, the “Apoptosis Late (Q2)” value with HepG-2 cells [8] turned out to be 19.85%. In addition, the “Apoptosis Total” value in the series on HepG-2 cells [8] is on record as 30.87%. Further, in the series with HepG-2 cells [8], the “Necrosis (Q1)” value stood at 5.41%.
Consider `Cc1c(C(=O)N/N=C/c2ccc(Cl)cc2)nnn1Cc1nc2ccccc2[nH]1` [Compound 6a, (E)-1-[(1H-Benzo[d]imidazol-2-yl)methyl]-N′-(4-chlorobenzylidene)-5-methyl-1H-1,2,3-triazole-4-carbohydrazide], for which the IC50 with HCT-116 cells (setting [9]) was 28.2 ± 2.5 µM; in the series on HeLa cells (setting [10]), 35.3 ± 2.5 µM; with MCF-7 cells (setting [11]), 39.5 ± 2.6 µM; with HepG-2 cells [1] (setting [12]), 47 ± 2.8 µM; in series [2] (setting [18]) it was 21 to 50 µM; in series [2] (setting [17]) it was 28.2 to 47 µM.
For the molecule `Cc1c(C(=O)N/N=C/c2ccccc2)nnn1Cc1nc2ccccc2[nH]1` [Compound 6b, (E)-1-[(1H-Benzo[d]imidazol-2-yl)methyl]-N′-benzylidene-5-methyl-1H-1,2,3-triazole-4-carbohydrazide], the IC50 turned out to be 75.1 ± 3.8 µM with HCT-116 cells (setting [9]), 61.2 ± 3.4 µM with HeLa cells (setting [10]), 57.6 ± 3.3 µM in the series on MCF-7 cells (setting [11]) and 84.5 ± 4.1 µM in the series with HepG-2 cells [1] (setting [12]).
